{"source": "patent US6551602B1", "about": "“Skin care composition containing conjugated linoleic acid and a phenolic compound” (Conopco, Inc., priority 1999, dated 2003)", "type_in_all_cases": "cell-based", "key": {"[1]": {"system": "decorin synthesis in human dermal fibroblasts", "assay": "Dot blot assay for decorin protein in dermal fibroblast conditioned medium", "conditions": "24 h, relative to vehicle treated control = 100 arbitrary units", "procedure": "Procedure for Measuring Procollagen-I and Decorin Synthesis in Human Dermal Fibroblasts\nPreparation of Dermal Fibroblast Conditioned Medium\nPrimary human foreskin fibroblasts at passage 2 (P2) were seeded into 12-well plates at 10000 cells/cm^2 and maintained for 24 hours in an atmosphere of 5% carbon dioxide and 4% oxygen in Dulbeccos Modified Eagles Medium (DMEM) supplemented with 10% foetal calf serum. After this time the cells were washed with serum free DMEM and then incubated in fresh serum free DMEM for a further 60 hours.\nThe fibroblast monolayers were then washed again with serum free DMEM. […] This fibroblast conditioned medium was either analysed immediately or snap frozen in liquid nitrogen and stored at −70° C. for future analysis. The cells were then counted and data from the dot-blot analysis subsequently standardised to cell number. […]\nMembranes prepared for decorin analysis were blocked with 3% (w/v) BSA/0.1% (v/v) Tween 20 in PBS, whilst those for procollagen-I analysis were blocked with 5% (w/v) non fat dried milk powder/0.05% Tween 20 in PBS. […] Dot intensity was assessed by computer-assisted image analysis using the quantification tools in ImageQuant™, standardised to cell number and the effects of various test reagents on decorin and procollagen-I synthesis were determined relative to a vehicle treated control value of 100 arbitrary units. […]"}, "[2]": {"system": "PGE2 production by human skin fibroblasts", "assay": "Fibroblast PGE2 assay (PMA-induced)", "conditions": "PMA 10 nM", "procedure": "Fibroblasts PGE2 and ICAM Assay\nIntracellular adhesion molecules (ICAM) and PEG2 production by human skin fibroblasts can be induced by the inflammatory stimulus PMA (phorbal myristate acetate). PMA represents an external stressor which induces oxidative stress and inflammatory responses in cells. This model is used to model inflammation in vivo.\n(§1) Primary human foreskin fibroblasts at passage 2 (P2) were seeded into 96-well plates at 10000 cells/well and maintained for 24 hours in an atmosphere of 5% carbon dioxide in Dulbeccos Modified Eagles Medium (DMEM) supplemented with 10% foetal calf serum. The test substances as indicated in the table 7 below were added to fresh cell media (DMEM, supplemented with 10% foetal calf serum) in dimethylsulphoxide and ethanol final concentration<1%) in triplicate and incubated for a further 24 hours. Phorbal myristate acetate (PMA) (Sigma) was added 10 nM to the media and the cells incubated for a further 24 hours. […] The fibroblasts/media were then analysed as described below immediately or snap frozen in liquid nitrogen and stored at −70° C. for future analysis. The cells were then counted and data from the dot-blot analysis subsequently standardised to cell number.\nProstaglandin E2 (PGE2) Assay\nVolumes of 50 μl culture medium were taken for PGE2 assay after gently shaking the culture plate. PGE2 levels in the medium were determined with a Biotrak PGE2 immunoassay kit (Amersham, UK). The assay is based on the competition between unlabelled PGE2 in the sample and a fixed quantity of horseradish peroxidase labelled PGE2 for a limited amount of fixed PGE2 specific antibody. Concentrations of unlabelled sample PGE2 are determined according to a standard curve which was obtained at the same time."}, "[3]": {"system": "ICAM production by human skin fibroblasts", "assay": "Fibroblast ICAM-1 assay (PMA-induced)", "conditions": "PMA 10 nM", "procedure": "as §1, with “Fibroblasts PGE2 and ICAM Assay Intracellular adhesion molecules (ICAM) and PEG2 production by human skin fibroblasts can be induced by the inflammatory stimulus PMA (phorbal myristate acetate). PMA represents an external stressor which induces oxidative stress and inflammatory responses in cells. This model is used to model inflammation in vivo. Primary” for “Primary”, “hours.” for “hours. Phorbal myristate acetate (PMA) (Sigma) was added 10 nM to the media and the cells incubated for a further 24 hours.”, “number. […] The soluble ICAM-1 was assessed with commercially available immunoenzymometric assay kit (R&D Systems). Concentrations of ICAM-1 in the samples were determined based on parallel running standard curve.” for “number.”"}}}
{"compound": "O=C(O[C@@H]1Cc2c(O)cc(O)cc2O[C@@H]1c1cc(O)c(O)c(O)c1)c1cc(O)c(O)c(O)c1", "note": "[EGCG, epigallocatechin gallate]", "values": [{"measurement": "Decorin", "setting": "[1]; 0.5 μg/ml EGCG", "value": "−99.6", "unit": "%"}, {"measurement": "% of Inhibition of Fibroblast PGE2 Levels", "setting": "[2]; EGCG 5 μM", "value": 35.6, "unit": "%"}, {"measurement": "% of inhibition of fibroblast ICAM production", "setting": "[3]; EGCG 5 μM", "value": 4.5, "unit": "%"}]}
{"compound": "conjugated linoleic acid [CLA]", "values": [{"measurement": "Decorin", "setting": "[1]; 0.1 μM CLA", "value": 68.29, "unit": "%"}, {"measurement": "% of Inhibition of Fibroblast PGE2 Levels", "setting": "[2]; CLA 0.1 μM", "value": 16.9, "unit": "%"}, {"measurement": "% of Inhibition of Fibroblast PGE2 Levels", "setting": "[2]; CLA 5 μM", "value": 14.5, "unit": "%"}, {"measurement": "% of inhibition of fibroblast ICAM production", "setting": "[3]; CLA 1 μM", "value": 27.7, "unit": "%"}]}
{"compound": "O=c1c(-c2ccc(O)cc2)coc2cc(O)cc(O)c12", "note": "[genistein]", "values": [{"measurement": "inhibition at 5 µM", "setting": "[2]; Homo sapiens, Skin fibroblast, genistein 5 μM, read-out: % of Inhibition of Fibroblast PGE2 Levels", "value": 52, "unit": "%"}]}
